# In patent publication US8338401B2, “Coumarin-amide derivatives and its preparation, said drug composition and its use” (Institute of Materia Medica Chinese Academy of Medical …, priority 2002, dated 2012):
# Like-named read-outs stand apart in the source and are kept apart here.
# Assays:
# [1] = system: kidney tubulointerstitial fibrosis caused by unilateral ureteral obstruction (UUO) in rats; assay: Inhibition of kidney tubulointerstitial fibrosis caused by unilateral ureteral obstruction (UUO) in rats; format: in vivo, Male Wistar rats; conditions: UUO rats; for BUN: oral for 16 days
# Method: Male Wistar rats with initial body weights of 180˜230 g were used. Unilateral ureteral obstruction was performed under pentobarbital anesthesia (35 mg/kg) and sterile conditions. Via a midline incision, the left ureteral was ligated. Sham surgery was performed by making a midline incision but leaving ureteral intact. Following surgery, rats were randomly divided into sham, model, Benazepril (4 mg/kg/day) and Losartan (10 mg/kg/day) as positive control, and compound 149 (5 mg/kg/day, 10 mg/kg/day and 20 mg/kg/day). Starting 2 day before surgery, Benazepril, Losartan and compound 149 were administered for 16 days orally. BUN and creatinine in serum were determined in the 11th and 16th day (Table 6) following initiation of Benazepril, Losartan and compound 149 treatment, at which time animals were killed and the kidneys were harvested. Tissues were dissected, weighed, fixed in 10% formaldehyde and embedded in paraffin wax for pathological analysis.
# [2] = system: chronic renal failure induced by 5/6 nephrectomy in rats; format: in vivo, Male Wistar rats
# Method: The model on chronic renal failure induced by partial renal ablation in rats was set up according to the Guidelines of Pre-clinic Research for New Drugs. Male Wistar rats with initial body weights of 200 g, anesthetized with 35 mg/kg of pentobarbital i.p., the right kidney was removed, and the upper and lower pole […] of the left kidney were resected, stop bleeding, closed the abdominal and sutured. Four weeks following surgery, the BUN, creatinine and urinary protein in rats were determined. […] Rats were randomly divided into seven groups, 30/group, with sham, model, Benazepril (4 mg/kg/day) and Losartan (10 mg/kg/day) as positive control, and compound 149 groups (7.5 mg/kg/day, 15 mg/kg/day and 30 mg/kg/day, respectively). All the groups were administered intragastrically, once per day and 6 (six) times per week, till 16 weeks post surgery. Body weights were weighed to observe the growth of the rats. The above indexes were determined every 4 weeks up to the 16th week following the initiation of drug administration, and at each time, a number of animals were sacrificed and the kidneys were harvested for pathological analysis. Pathological lesions in chronic renal failure models are mainly glomerulosclerosis and interstitial fibrosis. According to the damage extents, glomerulosclerosis is divided into five grades (0 IV). 0 grade means no glomerulus pathological changes at all, and IV grade means ultimately glomerular sclerosis and glassy pathological changes.
# TGF-β receptor = TGF-β receptor binding antagonism assay ([125I]TGF-β1) in Balb/c 3T3 cells; conditions: for Inhibition Rate (%): 10 μg/ml, 50 pmol/L [125I]TGF-β1
# Method: Balb/c 3T3 cells were seeded in 24 well-plate and cultured in Dulbecco's modified Eagle's medium (DMEM) supplemented with 10% fetal bovine serum, in 37° C. and 5% CO2, for 2-4 days. When cells were at a near-confluent, medium was changed to the binding buffer (50 mmol/L HEPES containing NaCl, KCl, MgSO4 and CaCl2). The assay was initiated by addition of 50 pmol/L [^125I]TGF-β1 and test compounds. After incubation for 210-240 minutes, the medium was removed, and cells were washed with ice-cold binding buffer. Non-specific bindings in the presence of 10 nmol/L TGF-β1 were determined. The cells were then solubilized using buffer containing Triton X-100 and the radioactivity was measured (see Table 4).
# [3] = 8th week after administration (12 weeks after nephrectomy), 4 mg/kg
# [4] = 8th week after administration (12 wk after nephrectomy), 4 mg/kg
# [5] = 12th week after administration (16 weeks after nephrectomy), 4 mg/kg
# [6] = 12th week after administration (16 wk after nephrectomy), 4 mg/kg
# [7] = 16 weeks after nephrectomy (12 weeks since administration), 4 mg/kg/day
# [8] = 8th week after administration (12 weeks after nephrectomy), 10 mg/kg
# [9] = 8th week after administration (12 wk after nephrectomy), 10 mg/kg
# [10] = 12th week after administration (16 weeks after nephrectomy), 10 mg/kg
# [11] = 12th week after administration (16 wk after nephrectomy), 10 mg/kg
compound,measurement,setting,value
CCOC(=O)c1cc2cc([N+](=O)[O-])c(O)c([N+](=O)[O-])c2oc1=O,melting point,,176 °C
CCOC(=O)c1cc2cc([N+](=O)[O-])c(OC)c([N+](=O)[O-])c2oc1=O,melting point,,152 °C
"CCOC(=O)[C@H](CCc1ccccc1)N[C@H]1CCc2ccccc2N(CC(=O)O)C1=O [Benazepril, reference compound]",inflammatory cell infiltration and tubulointerstitial fibrosis (pathological changes),[1],more significant
same,animals with focal abscess formations in the medulla of kidney,[1]; 4 mg/kg/day,4/7
same,BUN,[1]; 4.0 mg/kg,20.99 ± 1.58 mg/dL
same,BUN,[2]; [3],37.66 ± 8.895 mg/dL
same,serum creatinine (Scr.),[2]; [3],3.54 ± 1.140 mg/dL
same,AII (Angiotensin II),[2]; [4],74.3 ± 13.2 pg/mL
same,UP (urinary protein),[2]; [4],51.1 ± 23.6 mg/day
same,serum TGF-β1,[2]; [4],40.9 ± 26.6 ng/mL
same,Glomerulosclerosis Grade (%): 0,"[2]; 8 wk after ad., 4 mg/kg/day",12.2 ± 19.0%
same,Glomerulosclerosis Grade (%): I,"[2]; 8 wk after ad., 4 mg/kg/day",29.6 ± 23.9%
same,Glomerulosclerosis Grade (%): II,"[2]; 8 wk after ad., 4 mg/kg/day",28.1 ± 18.1%
same,Glomerulosclerosis Grade (%): III,"[2]; 8 wk after ad., 4 mg/kg/day",19.6 ± 24.2%
same,Glomerulosclerosis Grade (%): IV,"[2]; 8 wk after ad., 4 mg/kg/day",5.9 ± 11.2%
same,Glomerulosclerosis Total Grade,"[2]; 8 wk after ad., 4 mg/kg/day",5.5 ± 2.6
same,BUN,[2]; [5],39.48 ± 7.109 mg/dL
same,serum creatinine (Scr.),[2]; [5],2.28 ± 0.70 mg/dL
same,AII (Angiotensin II),[2]; [6],47.8 ± 12.0 pg/mL
same,UP (urinary protein),[2]; [6],66.3 ± 31.9 mg/day
same,serum TGF-β1,[2]; [6],12.8 ± 14.8 ng/mL
same,inflammatory cell infiltration in kidney tissues,"[2]; 12 weeks after nephrectomy (8 weeks since administration), 4 mg/kg/day, some animals",severe
same,Glomerulosclerosis Grade (%): 0,"[2]; 12 wk after ad., 4 mg/kg/day",0%
same,Glomerulosclerosis Grade (%): I,"[2]; 12 wk after ad., 4 mg/kg/day",0%
same,Glomerulosclerosis Grade (%): II,"[2]; 12 wk after ad., 4 mg/kg/day",19.1 ± 27.1%
same,Glomerulosclerosis Grade (%): III,"[2]; 12 wk after ad., 4 mg/kg/day",46.2 ± 15.6%
same,Glomerulosclerosis Grade (%): IV,"[2]; 12 wk after ad., 4 mg/kg/day",34.8 ± 29.9%
same,Glomerulosclerosis Total Grade,"[2]; 12 wk after ad., 4 mg/kg/day",9.8 ± 1.4
same,"glomerulus pathological score, rank among groups",[2]; [7],the highest
same,inflammatory cell infiltration in kidney matrix,[2]; [7],medium-severe
"COc1ccc2cc(C(=O)Nc3cccc(C(=O)O)c3)c(=O)oc2c1 [Compound 2, 3-(m-carboxyphenylamidocarbonyl)-7-methoxycoumarin]",IC50,TGF-β receptor,13.8 µg/mL
same,Inhibition Rate (%),TGF-β receptor,74.1%
same,melting point,,> 300 °C
"COc1ccc2cc(C(=O)Nc3ccc(C(=O)O)c(O)c3)c(=O)oc2c1 [Compound 7, 3-(3′-hydroxy-4′-carboxyphenylamidocarbonyl)-7-methoxy coumarin]",IC50,TGF-β receptor,7.8 µg/mL
same,Inhibition Rate (%),TGF-β receptor,94.2%
same,melting point,,279 °C (dec.)
"CCc1cc2cc(C(=O)Nc3ccc(C(=O)O)c(O)c3)c(=O)oc2cc1OC [Compound 26, 3-(3′-hydroxy-4′-carboxy-phenylamidocarbonyl)-6-ethyl-7-methoxy-coumarin]",IC50,TGF-β receptor,8.5 µg/mL
same,Inhibition Rate (%),TGF-β receptor,95.4%
same,melting point,,266 °C
"CCc1cc2cc(C(=O)Nc3ccc(O)c(C(=O)O)c3)c(=O)oc2cc1OC [Compound 27, 3-(3′-carboxy-4′-hydroxy-phenylamidocarbonyl)-6-ethyl-7-methoxy-coumarin]",Inhibition Rate (%),TGF-β receptor,77.2%
COc1ccc2cc(C(=O)Nc3ccc(S(=O)(=O)Nc4cc(C)on4)cc3)c(=O)oc2c1C [Compound 55],Inhibition Rate (%),TGF-β receptor,52.3%
"COc1ccc2cc(C(=O)Nc3ccc(S(=O)(=O)NC(=N)N)cc3)c(=O)oc2c1OC [Compound 66, 3-(4′-guanidinosulfonylphenylamidocarbonyl)-7,8-dimethoxy-coumarin]",Inhibition Rate (%),TGF-β receptor,52.3%
"COc1cc2oc(=O)c(C(=O)Nc3ccc(C(=O)O)c(O)c3)cc2cc1Cl [Compound 87, 3-(3′-hydroxy-4′-carboxy-phenylamidocarbonyl)-6-chloro-7-methoxy-coumarin]",Inhibition Rate (%),TGF-β receptor,91.1%
"COc1cc2oc(=O)c(C(=O)Nc3ccc(O)c(C(=O)O)c3)cc2cc1Cl [Compound 88, 3-(3′-carboxy-4′-hydroxy-phenylamidocarbonyl)-6-chloro-7-methoxy-coumarin]",IC50,TGF-β receptor,5.3 µg/mL
same,Inhibition Rate (%),TGF-β receptor,111.2%
same,melting point,,> 300 °C
"COc1cc2oc(=O)c(C(=O)Nc3ccc(S(=O)(=O)NC(=N)N)cc3)cc2cc1Cl [Compound 92, 3-(4′-guanidinosulfonylphenylamidocarbonyl)-6-chloro-7-methoxy-coumarin]",Inhibition Rate (%),TGF-β receptor,106.4%
"COc1cc2oc(=O)c(C(=O)Nc3ccc(C(=O)O)c(O)c3)cc2cc1Br [Compound 96, 3-(3′-hydroxy-4′-carboxy-phenylamidocarbonyl)-6-bromo-7-methoxy-coumarin]",Inhibition Rate (%),TGF-β receptor,82.3%
"COc1ccc2cc(-c3nnc(-c4ccccc4)o3)c(=O)oc2c1 [Compound 206, 3-(2′-phenyl-1′,3′,4′-oxadiazol-5′yl)-7-methoxycoumarin]",Inhibition Rate (%),TGF-β receptor,−0.7%
"CCOC(=O)c1cc2cc([N+](=O)[O-])c(OC)c(OC)c2oc1=O [Compound 227, 3-ethoxycarbonyl-6-nitro-7,8-dimethoxy-coumarin]",melting point,,191 °C
"CCOC(=O)c1cc2cc(CC)c(O)c([N+](=O)[O-])c2oc1=O [Compound 233, 3-ethoxycarbonyl-6-ethyl-7-hydroxy-8-nitro-coumarin]",melting point,,143 °C
"CCOC(=O)c1cc2cc(Cl)c(O)c([N+](=O)[O-])c2oc1=O [Compound 241, 3-ethoxycarbonyl-6-chloro-7-hydroxy-8-nitro-coumarin]",melting point,,195 °C
"CCCCc1nc(Cl)c(CO)n1Cc1ccc(-c2ccccc2-c2nn[nH]n2)cc1 [Losartan, reference compound]",inflammatory cell infiltration and tubulointerstitial fibrosis (pathological changes),[1],significantly attenuated
same,BUN,[1]; 10.0 mg/kg,23.88 ± 2.94 mg/dL
same,BUN,[2]; [8],25.64 ± 5.116 mg/dL
same,serum creatinine (Scr.),[2]; [8],2.34 ± 0.268 mg/dL
same,AII (Angiotensin II),[2]; [9],96.7 ± 32.1 pg/mL
same,UP (urinary protein),[2]; [9],32.7 ± 10.3 mg/day
same,serum TGF-β1,[2]; [9],18.7 ± 9.2 ng/mL
same,Glomerulosclerosis Grade (%): 0,"[2]; 8 wk after ad., 10 mg/kg/day",54.4 ± 29.2 %
same,Glomerulosclerosis Grade (%): I,"[2]; 8 wk after ad., 10 mg/kg/day",31.9 ± 20.0%
same,Glomerulosclerosis Grade (%): II,"[2]; 8 wk after ad., 10 mg/kg/day",13.7 ± 14.0%
same,Glomerulosclerosis Grade (%): III,"[2]; 8 wk after ad., 10 mg/kg/day",1.1 ± 3.3 %
same,Glomerulosclerosis Grade (%): IV,"[2]; 8 wk after ad., 10 mg/kg/day",0%
same,Glomerulosclerosis Total Grade,"[2]; 8 wk after ad., 10 mg/kg/day",2.8 ± 1.0
same,BUN,[2]; [10],37.84 ± 5.672 mg/dL
same,serum creatinine (Scr.),[2]; [10],2.21 ± 0.48 mg/dL
same,AII (Angiotensin II),[2]; [11],38.9 ± 17.4 pg/mL
same,UP (urinary protein),[2]; [11],39.3 ± 14.2 mg/day
same,serum TGF-β1,[2]; [11],11.8 ± 12.6 ng/mL
same,"Glomerulus pathological scores, compared with the model group","[2]; 12 weeks after nephrectomy (8 weeks since administration), compound 149 30 mg/kg, Losartan 10 mg/kg/day",less than that of the model group significantly
same,"rates of 0 grade glomerylus in residual kidney, compared with the model group","[2]; 12 weeks after nephrectomy (8 weeks since administration), compound 149 30 mg/kg, Losartan 10 mg/kg/day, P<0.05",higher than that of the model group with significant difference
same,Glomerulosclerosis Grade (%): 0,"[2]; 12 wk after ad., 10 mg/kg/day",0%
same,Glomerulosclerosis Grade (%): I,"[2]; 12 wk after ad., 10 mg/kg/day",10.0 ± 2.9%
same,Glomerulosclerosis Grade (%): II,"[2]; 12 wk after ad., 10 mg/kg/day",45.7 ± 17.7%
same,Glomerulosclerosis Grade (%): III,"[2]; 12 wk after ad., 10 mg/kg/day",41.9 ± 25.6%
same,Glomerulosclerosis Grade (%): IV,"[2]; 12 wk after ad., 10 mg/kg/day",2.8 ± 4.8%
same,Glomerulosclerosis Total Grade,"[2]; 12 wk after ad., 10 mg/kg/day",7.2 ± 1.3
same,"number of grade III glomerulus, compared with the model group","[2]; 16 weeks after nephrectomy (12 weeks since administration), compound 149 30 mg/kg (P<0.01), Losartan 10 mg/kg/day (P<0.05)",less than that of the model group significantly
